This note sets out measurements from US6770636B2, “Phenyl-and phenylalkyl-substituted ethanolamines and ethylenediamines” (Boehringer Ingelheim Pharma KG, priority 2000, dated 2004).

SMILES strings stand for the structures. Structures can show the parent of a compound that is named as a salt.

By melting point is commonly meant the temperature of the solid-liquid transition. Compound `Cc1cccc(C)c1C(C[N+](C)(C)C)OCCCc1c(F)cccc1F.[I-]` (stereo not shown) yielded a melting point of 190 °C.

Consider `Cc1cccc(C)c1C(CN1CCCCC1)OCCCc1c(F)cccc1F` (stereo not shown) (as salt: hydrochloride) [Example 14, 1-[2-[3-(2,6-difluorophenyl)propoxy]-2-(2,6-dimethylphenyl)ethyl]piperidine], for which the melting point is above 200 °C.

For the compound `Cc1cccc(C)c1C(CNCc1ccccc1)OCCCc1c(F)cccc1F` (stereo not shown) (as salt: hydrochloride) [Example 23, N-[2-[3-(2,6-difluorophenyl)propoxy]-2-(2,6-dimethylphenyl)ethyl]-N-benzylamine], the melting point turned out to be 176 °C.

`Cc1cccc(C)c1C(CN(Cc1ccccc1)Cc1ccccc1)OCCCc1c(F)cccc1F` (stereo not shown) (as salt: hydrochloride) [Example 24, N-[2-[3-(2,6-difluorophenyl)propoxy]-2-(2,6-dimethylphenyl)ethyl]-N,N-bis(benzyl)amine] had a melting point of 108 °C.

Compound `C=C(C)C1CC=C(CNCC(OCCCc2c(F)cccc2F)c2c(C)cccc2C)CC1` (stereo not shown) (as salt: hydrochloride) [Example 25, N-[2-[3-(2,6-difluorophenyl)propoxy]-2-(2,6-dimethylphenyl)ethyl]-N-(4-isopropenylcyclohexen-1-ylmethyl)amine] registered a melting point of 155 °C.

`Cc1cccc(C)c1C(CN1CCCCC1)NCCCc1c(F)cccc1F` (stereo not shown) (as salt: hydrochloride) [Example 35, [3-(2,6-difluorophenyl)propyl]-[1-(2,6-dimethylphenyl)-2-piperidin-1-ylethyl]amine] had a melting point of 145 °C.

`Cc1cccc(C)c1C(CN1CCCCC1)OCc1ccccc1` (stereo not shown) (as salt: hydrochloride) [Example 38, 1-[2-benzyloxy-2-(2,6-dimethylphenyl)ethyl]piperidine]: the melting point was in the range of 197 to 199 °C.

On to `Cc1cccc(C)c1C(CN1CCCCC1)OCc1ccc(Br)cc1` (stereo not shown) (as salt: hydrochloride) [Example 39, 1-[2-(4-bromobenzyloxy)-2-(2,6-dimethylphenyl)ethyl]piperidine], for which the melting point was 152 to 154 °C.

Compound `Cc1cccc(C)c1C(CN1CCCCC1)OCc1ccc(Cl)cc1` (stereo not shown) (as salt: hydrochloride) [Example 40, 1-[2-(4-chlorobenzyloxy)-2-(2,6-dimethylphenyl)ethyl]piperidine] yielded a melting point of 134 to 135 °C.

`Cc1cccc(C)c1C(CN1CCCCC1)OCc1c(Cl)cccc1Cl` (stereo not shown) (as salt: hydrochloride) [Example 41, 1-[2-(2,6-dichlorobenzyloxy)-2-(2,6-dimethylphenyl)ethyl]piperidine] gave a melting point of 225 to 227 °C.

`Cc1cccc(C)c1C(CN1CCCCC1)OCc1c(F)cccc1F` (stereo not shown) (as salt: hydrochloride) [Example 42, 1-[2-(2,6-difluorobenzyloxy)-2-(2,6-dimethylphenyl)ethyl]piperidine]: the melting point fell in the range of 183 to 185 °C.

On to `Cc1cccc(C)c1C(CN1CCCCC1)OCc1ccc(Br)cc1Cl` (stereo not shown) (as salt: hydrochloride) [Example 43, 1-[2-(2-chloro-4-bromobenzyloxy)-2-(2,6-dimethylphenyl)ethyl]piperidine], for which the melting point was 222 to 224 °C.

As to `Cc1cccc(C)c1C(CN(C)CC1CC1)OCCCc1c(F)cccc1F` (stereo not shown) [Example 10, N-[2-[3-(2,6-difluorophenyl)propoxy]-2-(2,6-dimethylphenyl)ethyl]-N-cyclopropylmethyl-N-methylamine], the melting point is 78 °C.
